Experimental data reported in the NIST ThermoML archive (doi:10.1021/je049762q).
Where “and” joins values, the source holds several entries; their conditions need not be identical. Equal entries are not always repeated. Numbers after ± are expanded uncertainties.

Assay: molar heat capacity at constant pressure
Conditions: 101.33 kPa, Crystal

Clc1cc(Cl)cc(Cl)c1 [1,3,5-trichlorobenzene]
Conditions | molar heat capacity at constant pressure
6.3 K | 0.73 ± 0.04 J/K/mol
6.76 K | 1.13 ± 0.04 J/K/mol
7.5 K | 1.88 ± 0.05 J/K/mol
7.61 K | 1.64 ± 0.05 J/K/mol
8.27 K | 2.46 ± 0.06 J/K/mol
8.49 K | 2.76 ± 0.07 J/K/mol
9.54 K | 3.28 ± 0.07 J/K/mol
9.57 K | 3.32 ± 0.07 J/K/mol
10 K | 3.78 ± 0.08 J/K/mol
10.48 K | 4.28 ± 0.09 J/K/mol
10.78 K | 4.56 ± 0.09 J/K/mol
11.23 K | 4.67 ± 0.09 J/K/mol
11.76 K | 5.07 ± 0.1 J/K/mol
12.18 K | 5.67 ± 0.11 J/K/mol
13.16 K | 7.41 ± 0.13 J/K/mol
14.33 K | 8.56 ± 0.14 J/K/mol
14.68 K | 9.1 ± 0.15 J/K/mol
15 K | 9.58 ± 0.15 J/K/mol
16.47 K | 11.78 ± 0.17 J/K/mol
16.54 K | 11.86 ± 0.17 J/K/mol
18.11 K | 14.04 ± 0.19 J/K/mol
18.46 K | 14.51 ± 0.19 J/K/mol
19.49 K | 16.03 ± 0.21 J/K/mol
20 K | 16.74 ± 0.21 J/K/mol
20.47 K | 17.39 ± 0.21 J/K/mol
20.67 K | 17.88 ± 0.22 J/K/mol
21.77 K | 19.17 ± 0.22 J/K/mol
22.76 K | 20.24 ± 0.22 J/K/mol
24.03 K | 21.5 ± 0.22 J/K/mol
25 K | 22.66 ± 0.23 J/K/mol
25.53 K | 23.3 ± 0.23 J/K/mol
26.89 K | 24.95 ± 0.23 J/K/mol
26.99 K | 25.08 ± 0.23 J/K/mol
28.15 K | 26.53 ± 0.22 J/K/mol
29.75 K | 28.33 ± 0.22 J/K/mol
30 K | 28.58 ± 0.2 J/K/mol
32.12 K | 30.66 ± 0.2 J/K/mol
34.24 K | 32.73 ± 0.21 J/K/mol
36.16 K | 34.21 ± 0.22 J/K/mol
37.93 K | 35.9 ± 0.22 J/K/mol
39.58 K | 37.3 ± 0.23 J/K/mol
40 K | 37.64 ± 0.23 J/K/mol
41.88 K | 39.13 ± 0.24 J/K/mol
44.77 K | 41.44 ± 0.25 J/K/mol
47.4 K | 43.42 ± 0.25 J/K/mol
49.84 K | 45.24 ± 0.26 J/K/mol
50 K | 45.36 ± 0.26 J/K/mol
52.12 K | 46.94 ± 0.27 J/K/mol
54.28 K | 48.44 ± 0.27 J/K/mol
56.33 K | 49.86 ± 0.28 J/K/mol
58.29 K | 51.22 ± 0.29 J/K/mol
60 K | 52.37 ± 0.29 J/K/mol
60.17 K | 52.49 ± 0.29 J/K/mol
61.98 K | 53.68 ± 0.3 J/K/mol
63.73 K | 54.83 ± 0.3 J/K/mol
65.43 K | 55.89 ± 0.3 J/K/mol
67.08 K | 56.99 ± 0.31 J/K/mol
68.68 K | 57.99 ± 0.31 J/K/mol
70 K | 58.81 ± 0.32 J/K/mol
70.25 K | 58.96 ± 0.32 J/K/mol
71.78 K | 59.87 ± 0.32 J/K/mol
73.27 K | 60.75 ± 0.32 J/K/mol
74.74 K | 61.66 ± 0.33 J/K/mol
76.18 K | 62.52 ± 0.33 J/K/mol
77.59 K | 63.36 ± 0.33 J/K/mol
78.98 K | 64.16 ± 0.34 J/K/mol
80 K | 65.01 ± 0.34 J/K/mol
80.55 K | 65.45 ± 0.34 J/K/mol
81.45 K | 65.93 ± 0.34 J/K/mol
82.22 K | 66.44 ± 0.35 J/K/mol
83.86 K | 67.37 ± 0.35 J/K/mol
83.98 K | 67.39 ± 0.35 J/K/mol
85.47 K | 68.28 ± 0.35 J/K/mol
86.45 K | 68.77 ± 0.36 J/K/mol
87.05 K | 69.08 ± 0.36 J/K/mol
88.6 K | 70 ± 0.36 J/K/mol
88.86 K | 70.1 ± 0.36 J/K/mol
90 K | 70.62 ± 0.54 J/K/mol
90.14 K | 70.69 ± 0.54 J/K/mol
91.23 K | 71.17 ± 0.54 J/K/mol
91.65 K | 71.42 ± 0.54 J/K/mol
93.14 K | 72.19 ± 0.54 J/K/mol
93.56 K | 72.31 ± 0.54 J/K/mol
94.61 K | 72.86 ± 0.55 J/K/mol
94.95 K | 73 ± 0.55 J/K/mol
95.84 K | 73.25 ± 0.55 J/K/mol
96.07 K | 73.4 ± 0.55 J/K/mol
97.51 K | 74.13 ± 0.55 J/K/mol
98.08 K | 74.45 ± 0.55 J/K/mol
98.92 K | 74.86 ± 0.55 J/K/mol
100 K | 75.37 ± 0.55 J/K/mol
100.29 K | 74.9 ± 0.55 J/K/mol
101.72 K | 76.37 ± 0.55 J/K/mol
102.39 K | 76.72 ± 0.55 J/K/mol
102.47 K | 76.71 ± 0.55 J/K/mol
103.09 K | 76.88 ± 0.55 J/K/mol
104.45 K | 77.52 ± 0.56 J/K/mol
104.61 K | 77.48 ± 0.56 J/K/mol
105.8 K | 78.18 ± 0.56 J/K/mol
105.97 K | 78.26 ± 0.56 J/K/mol
106.72 K | 78.56 ± 0.56 J/K/mol
107.13 K | 78.9 ± 0.56 J/K/mol
107.15 K | 78.92 ± 0.56 J/K/mol
108.46 K | 79.49 ± 0.56 J/K/mol
108.81 K | 79.58 ± 0.56 J/K/mol
109.46 K | 80.02 ± 0.56 J/K/mol
109.77 K | 80.18 ± 0.56 J/K/mol
110 K | 80.28 ± 0.56 J/K/mol
110.87 K | 80.59 ± 0.56 J/K/mol
111.07 K | 80.74 ± 0.56 J/K/mol
111.47 K | 80.93 ± 0.56 J/K/mol
112.36 K | 81.34 ± 0.56 J/K/mol
112.87 K | 81.56 ± 0.56 J/K/mol
113.65 K | 81.98 ± 0.56 J/K/mol
114.92 K | 82.54 ± 0.57 J/K/mol and 82.67 ± 0.57 J/K/mol
115.68 K | 83.09 ± 0.57 J/K/mol
116.19 K | 83.21 ± 0.57 J/K/mol
116.91 K | 83.54 ± 0.57 J/K/mol
118.88 K | 84.5 ± 0.57 J/K/mol
119.52 K | 84.75 ± 0.57 J/K/mol
119.79 K | 85.04 ± 0.57 J/K/mol
120 K | 85.15 ± 0.57 J/K/mol
120.83 K | 85.51 ± 0.57 J/K/mol
122.75 K | 86.55 ± 0.57 J/K/mol
124.68 K | 87.28 ± 0.57 J/K/mol
125.93 K | 87.73 ± 0.58 J/K/mol
126.58 K | 88.03 ± 0.58 J/K/mol
127.78 K | 88.73 ± 0.58 J/K/mol
128.47 K | 88.92 ± 0.58 J/K/mol
129.07 K | 89.19 ± 0.58 J/K/mol
130 K | 89.68 ± 0.58 J/K/mol
130.33 K | 89.86 ± 0.58 J/K/mol
131.66 K | 90.66 ± 0.58 J/K/mol
132.19 K | 90.72 ± 0.58 J/K/mol
134.03 K | 91.56 ± 0.58 J/K/mol
135.22 K | 92.02 ± 0.58 J/K/mol
135.48 K | 92.36 ± 0.58 J/K/mol
135.85 K | 92.4 ± 0.58 J/K/mol
137.66 K | 93.21 ± 0.59 J/K/mol
138.23 K | 93.42 ± 0.59 J/K/mol
139.24 K | 94.03 ± 0.59 J/K/mol
140 K | 94.33 ± 0.59 J/K/mol
141.21 K | 94.75 ± 0.59 J/K/mol
141.25 K | 94.81 ± 0.59 J/K/mol
142.95 K | 95.67 ± 0.59 J/K/mol
144.16 K | 96.04 ± 0.59 J/K/mol
146.61 K | 97.27 ± 0.59 J/K/mol
147.08 K | 97.34 ± 0.59 J/K/mol
149.97 K | 98.63 ± 0.6 J/K/mol
150 K | 98.65 ± 0.6 J/K/mol
150.22 K | 98.83 ± 0.6 J/K/mol
152.83 K | 99.87 ± 0.6 J/K/mol
153.79 K | 100.35 ± 0.6 J/K/mol
155.66 K | 101.1 ± 0.6 J/K/mol
157.32 K | 101.86 ± 0.6 J/K/mol
158.47 K | 102.3 ± 0.6 J/K/mol
160 K | 102.99 ± 0.61 J/K/mol
160.81 K | 103.34 ± 0.61 J/K/mol
161.25 K | 103.49 ± 0.61 J/K/mol
164.01 K | 104.67 ± 0.61 J/K/mol
164.27 K | 104.83 ± 0.61 J/K/mol
166.74 K | 105.83 ± 0.61 J/K/mol
167.69 K | 106.28 ± 0.61 J/K/mol
169.46 K | 106.98 ± 0.61 J/K/mol
170 K | 107.22 ± 0.61 J/K/mol
